Literature values as cited in patent publication US20070184116A1, “Pharmaceutical formulation containing unmilled flutamide” (priority 2004, published 2007).

SMILES: CC(C)C(=O)Nc1ccc([N+](=O)[O-])c(C(F)(F)F)c1 [Flutamide, 2-methyl-N-[4-nitro-3-(trifluoromethyl)phenyl]propanamide]
- solubility in acid medium (acid medium, for example 0.1% hydrochloric acid (pH corresponds to gastric juice)): virtually insoluble
- solubility in water (water): virtually insoluble
